pIC50: −log10 of the molar value.

Experimental findings from patent US9464062B2, “Disubstituted oxazolidin-2-ones 5-hydroxytryptamine receptor 2B activity modulators” (TEMPLE UNIVERSITY—OF THE COMMONWEALTH SYSTEM OF HIGHER …, priority 2012, dated 2016) are described below.

The target in this experiment is 5HT2B receptors (Homo sapiens (Human), UniProt P41595). Put plainly: Radiolabel Binding Studies for Serotonin 5HT2B receptors, method 1 ([3H]LSD competition). The note with it: for inhibition at 10 µM: single concentration 10 uM, inhibition of [3H]LSD binding, read-out: 5-HT2B % inhib @10 uM; for pIC50: [3H]LSD radioligand. The method, then:
A solution of the compound of the disclosure to be tested is prepared as a 1-mg/ml stock in Assay Buffer (50 mM Tris-HCl, 10 mM MgCl2, 1 mM EDTA, pH 7.4) or DMSO according to its solubility. A 1-mg/ml stock of the reference compound 5-hydroxytryptamine (5-HT) is also prepared as a positive control. Eleven dilutions (5× assay concentration) of the compound of the disclosure and 5-HT are prepared in the Assay Buffer by serial dilution to yield final corresponding assay concentrations ranging from […].
A stock concentration of 5 nM [^3H]LSD (lysergic acid diethyl amide) is prepared in Assay Buffer. Aliquots (50 μl) of radioligand are dispensed into the wells of a 96-well plate containing 100 μl of Assay Buffer. Duplicate 50-μl aliquots of the compound of the disclosure test and 5-HT positive control reference compound serial dilutions are added.
Membrane fractions of cells expressing recombinant 5HT2B receptors (50 μL) are dispensed into each well. The membranes are prepared from stably transfected c ell lines expressing 5HT2B receptors cultured on 10-cm plates by harvesting PBS-rinsed monolayers, resuspending and lysing the monolayers in chilled, hypotonic 50 mM Tris-HCl, pH 7.4, centrifuging at 20,000×g, decanting the supernatant and storing at −80° C. The membrane preparations are resuspended in 3 ml of chilled Assay Buffer and homogenized by several passages through a 26 gauge needle before use in the assay.
The 250-μl reactions are incubated at room temperature for 1.5 hours, then harvested by rapid filtration onto 0.3% polyethyleneimine-treated, 96-well filter mats using a 96-well Filtermate harvester. Four rapid 500-μl washes are performed with chilled Assay Buffer to reduce non-specific binding. The filter mats are dried, then scintillant is added to the filters and the radioactivity retained on the filters is counted in a scintillation counter.
Raw data (dpm) representing total radioligand binding (i.e., specific+non-specific binding) are plotted as a function of the logarithm of the molar concentration of the competitor (i.e., test or reference compound). Non-linear regression of the normalized (i.e., percent radioligand binding compared to that observed in the absence of test or reference compound) raw data is performed in […] (GraphPad Software, Inc.) using the built-in three parameter logistic model describing ligand competition binding to radioligand-labeled sites: y=bottom+[(top−bottom)/(1+[…])] where “bottom” is the residual radioligand binding measured in the presence of 10 μM reference compound (i.e., non-specific binding) and “top” is the total radioligand binding observed in the absence of competitor. The log IC50 (i.e., the log of the ligand concentration that reduces radioligand binding by 50%) is thus estimated from the data and used to obtain the Ki by applying the Cheng-Prusoff approximation: Ki=IC50/(1+[ligand]/KD) where “[ligand]” is the assay radioligand concentration and “KD” is the affinity constant of the radioligand for the target receptor.
Compounds of the disclosure are also screened at a single concentration of 10 μM using the same method described for the Radiolabel Binding Studies for Serotonin 5HT2B receptors, method 1 to determine the percent inhibition of [^3H]LSD binding.

5HT2B receptors, sequence (P41595 whole entry): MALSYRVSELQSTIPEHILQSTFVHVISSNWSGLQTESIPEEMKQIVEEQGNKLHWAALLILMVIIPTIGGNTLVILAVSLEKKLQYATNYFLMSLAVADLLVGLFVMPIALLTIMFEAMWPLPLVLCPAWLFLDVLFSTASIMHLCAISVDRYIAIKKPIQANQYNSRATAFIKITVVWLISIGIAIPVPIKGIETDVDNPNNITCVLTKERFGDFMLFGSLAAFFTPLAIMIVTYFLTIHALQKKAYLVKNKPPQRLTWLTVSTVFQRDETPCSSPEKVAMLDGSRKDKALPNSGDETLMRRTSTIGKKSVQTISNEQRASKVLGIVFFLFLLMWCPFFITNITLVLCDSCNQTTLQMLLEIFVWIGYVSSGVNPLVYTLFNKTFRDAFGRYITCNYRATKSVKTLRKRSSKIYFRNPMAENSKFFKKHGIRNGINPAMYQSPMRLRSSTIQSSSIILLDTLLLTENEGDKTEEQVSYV

`O=C1OC(CN2CCN(C(c3ccccc3)c3ccccc3)CC2)CN1C1CCCCC1` (stereo not shown) [Entry 2]: the inhibition at 10 µM came to 91.4%.

`O=C1OC(CN2CCN(C(c3ccccc3)c3ccccc3)CC2)CN1C1CC1` (stereo not shown) [Entry 7]: the negative-log IC50 (pIC50) was 6.53 and the inhibition at 10 µM turned out to be 87.6%.

As to `CC(C)N1CC(CN2CCN(C(c3ccccc3)c3ccccc3)CC2)OC1=O` (stereo not shown) [Entry 3], the pIC50 is 6.56 and the inhibition at 10 µM stood at 84.9%.

`CC(C)(C)N1CC(CN2CCN(C(c3ccccc3)c3ccccc3)CC2)OC1=O` (stereo not shown) [Entry 6]: the pIC50 was 5.73 and the inhibition at 10 µM was found to be 59.3%.

In the case of `O=C1OC(CN2CCN(C(c3ccccc3)c3ccccc3)CC2)CN1C1CCCC1` (stereo not shown) [Entry 5], the pIC50 was 7.39 and the inhibition at 10 µM worked out at 94.1%.

With `C=CCN1CC(CN2CCN(C(c3ccccc3)c3ccccc3)CC2)OC1=O` (stereo not shown) [Entry 1], the pIC50 was 6.90 and the inhibition at 10 µM stood at 91.1%.

`O=C1OC(CN2CCN(C(c3ccccc3)c3ccccc3)CC2)CN1C1CCC1` (stereo not shown) [Entry 4]: the pIC50 was 6.72 and the inhibition at 10 µM came to 87.3%.

Usually pIC50 stands for the IC50 on a negative log10 scale, so that one unit is a factor of ten. Low values mean a large IC50, high ones a small IC50.
